Data on one compound can be found in US20170188607A1, “SOLUBILIZATION OF A SWEET MODULATOR AND FLAVOR” (Firmenich SA, priority 2014, published 2017).

The nature of this series: Supersaturation relative to the intrinsic solubility of the compound. Format: physicochemical. The method, then: A concentrated solution 1 of (S)-1-(3-(((4-amino-2,2-dioxido-1H-benzo[c][1,2,6]thiadiazin-5-yl)oxy)methyl)piperidin-1-yl)-3-methylbutan-1-one at 0.3% (w/w) (3000 ppm) was prepared in water. pH was adjusted to 11 using NaOH to form (S)-1-(3-(((4-amino-2,2-dioxido-1H-benzo[c][1,2,6]thiadiazin-5-yl)oxy)methyl)piperidin-1-yl)-3-methylbutan-1-one sodium salt and obtain an homogeneous solution. Next, a syrup was prepared by mixing an aqueous solution of High Fructose Corn Syrup (HFCS), citric acid and deionized water. The final syrup contained 34% fructose, 0.68% citric acid, 0.1% sodium citrate and 65.22% water, with a pH of 2. An aliquot of solution 1 was diluted 100 times with the syrup to yield a final concentration of 30 ppm of (S)-1-(3-(((4-amino-2,2-dioxido-1H-benzo[c][1,2,6]thiadiazin-5-yl)oxy)methyl)piperidin-1-yl)-3-methylbutan-1-one, i.e. about 18 times above the intrinsic solubility of the compound at 3° C. The sample was kept at 3° C. and the amount of (S)-1-(3-(((4-amino-2,2-dioxido-1H-benzo[c][1,2,6]thiadiazin-5-yl)oxy)methyl)piperidin-1-yl)-3-methylbutan-1-one was measured by UV spectroscopy as a function of time. The amount of (S)-1-(3-(((4-amino-2,2-dioxido-1H-benzo[c][1,2,6]thiadiazin-5-yl)oxy)methyl)piperidin-1-yl)-3-methylbutan-1-one was reduced to 28 ppm after 1 week and first crystals were visually observed. […]
A concentrated solution 1 of (S)-1-(3-(((4-amino-2,2-dioxido-1H-benzo[c][1,2,6]thiadiazin-5-yl)oxy)methyl)piperidin-1-yl)-3-methylbutan-1-one at […] was prepared in water. pH was adjusted to 11 using NaOH to form (S)-1-(3-(((4-amino-2,2-dioxido-1H-benzo[c][1,2,6]thiadiazin-5-yl)oxy)methyl)piperidin-1-yl)-3-methylbutan-1-one sodium salt and obtain an homogeneous solution. […] The sample was kept at 3° C. and the amount of (S)-1-(3-(((4-amino-2,2-dioxido-1H-benzo[c][1,2,6]thiadiazin-5-yl)oxy)methyl)piperidin-1-yl)-3-methylbutan-1-one was measured by UV spectroscopy as a function of time. […]

With `CC(C)CC(=O)N1CCC[C@H](COc2cccc3c2C(N)=NS(=O)(=O)N3)C1` [(S)-1-(3-(((4-amino-2,2-dioxido-1H-benzo[c][1,2,6]thiadiazin-5-yl)oxy)methyl)piperidin-1-yl)-3-methylbutan-1-one], the “times above the intrinsic solubility of the compound” value is “about 11 times” (final concentration of 18 ppm, at 3° C.); “about 18 times” (final concentration of 30 ppm, at 3° C.); “about 15 times” (final concentration of 100 ppm, at 20° C.).
